According to PubChem BioAssay AID330 (DTP/NCI, 2004):
Several values for one entry are separate records, joined by “and”; a condition that tells them apart may be missing. Identical values can stand only once. Inconclusive results and toxic doses are left out.

Test system: P388 leukemia ip, CD2F1 mice, survival T/C
Test: NCI In Vivo Anticancer Drug Screen. Data for tumor model P388 Leukemia (intraperitoneal) in CD2F1 (CDF1) mice
Settings: endpoint: median survival time, higher = longer survival
Procedure, shortened: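 Mice carrying the transplanted tumor received test compound or vehicle. Survival was recorded in each group, and the value is the treated-group measurement divided by that of the vehicle-treated control group.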

[1] = dose: 50.0 mg/kg/injection, schedule: Q01DX009 (ip), vehicle: saline with Tween-80
[2] = dose: 100.0 mg/kg/injection, schedule: Q01DX009 (ip), vehicle: saline with Tween-80
[3] = dose: 200.0 mg/kg/injection, schedule: Q01DX009 (ip), vehicle: saline with Tween-80
[4] = dose: 12.5 mg/kg/injection, schedule: Q01DX009 (ip), vehicle: saline
[5] = dose: 25.0 mg/kg/injection, schedule: Q01DX009 (ip), vehicle: saline
[6] = dose: 60.0 mg/kg/injection, schedule: Q01DX005 (ip), vehicle: saline with Tween-80
[7] = dose: 120.0 mg/kg/injection, schedule: Q01DX005 (ip), vehicle: saline with Tween-80
[8] = dose: 240.0 mg/kg/injection, schedule: Q01DX005 (ip), vehicle: saline with Tween-80

Q: With C(=N\Nc1nnc2c(n1)[nH]c1ccccc12)/c1cccnc1 as the compound, how does the T/C (dose: 12.5 mg/kg/injection, schedule: Q01DX005 (ip), vehicle: Klucel + Tween-80) read?
A: 106 % of control

Q: And the T/C (dose: 25.0 mg/kg/injection, schedule: Q01DX005 (ip), vehicle: Klucel + Tween-80)?
A: 91 % of control

Q: And the T/C (dose: 50.0 mg/kg/injection, schedule: Q01DX005 (ip), vehicle: Klucel + Tween-80)?
A: 87 % of control

Q: [Co+2].[O-]c1ccccc1/C=N/Nc1ccccn1.[O-]c1ccccc1/C=N/Nc1ccccn1 was tested. Which T/C (dose: 100.0 mg/kg/injection, schedule: Q04DX002 (ip), vehicle: saline with Tween-80) did it give?
A: 91 % of control

Q: And the T/C (dose: 200.0 mg/kg/injection, schedule: Q04DX002 (ip), vehicle: saline with Tween-80)?
A: 90 % of control

Q: What about the T/C (dose: 400.0 mg/kg/injection, schedule: Q04DX002 (ip), vehicle: saline with Tween-80) of the same compound?
A: 95 % of control

Q: Which results are given for CC1(C)C(N2CCOCC2)C(c2ccccc2)S1(=O)=O (configuration not stated)?
A: T/C (dose: 50.0 mg/kg/injection, schedule: Q01DX001 (ip), vehicle: saline with Tween-80): 91 % of control; T/C (dose: 100.0 mg/kg/injection, schedule: Q01DX001 (ip), vehicle: saline with Tween-80): 100 % of control; T/C (dose: 200.0 mg/kg/injection, schedule: Q01DX001 (ip), vehicle: saline with Tween-80): 95 % of control

Q: What does the source list for CCOC(=O)CCCCCNc1nc(Cl)nc(Cl)n1?
A: T/C [1]: 98 % of control; T/C [2]: 103 % of control; T/C [3]: 87 % of control

Q: What does the source list for CCOC(=O)C1=C(C)NC(=O)NC1c1ccc(N(C)C)cc1 (configuration not stated)?
A: T/C (dose: 50.0 mg/kg/injection, schedule: Q01DX005 (ip), vehicle: Klucel (hydroxypropylcellulose) (HPC)): 90 % of control; T/C (dose: 100.0 mg/kg/injection, schedule: Q01DX005 (ip), vehicle: Klucel (hydroxypropylcellulose) (HPC)): 95 % of control; T/C (dose: 200.0 mg/kg/injection, schedule: Q01DX005 (ip), vehicle: Klucel (hydroxypropylcellulose) (HPC)): 97 % of control

Q: For CS(=O)(=O)N/N=C/C(=O)O, which T/C (dose: 12.5 mg/kg/injection, schedule: Q01DX009 (ip), vehicle: water) is on record?
A: 118 % of control

Q: What about the T/C (dose: 50.0 mg/kg/injection, schedule: Q01DX009 (ip), vehicle: water) of the same compound?
A: 160 % of control

Q: And the T/C (dose: 100.0 mg/kg/injection, schedule: Q01DX009 (ip), vehicle: water)?
A: 157 % of control and 159 % of control

Q: For O=C(Nc1ccc(Cl)cc1)NN1CCCCCC1, which T/C (dose: 25.0 mg/kg/injection, schedule: Q04DX002 (ip), vehicle: saline with Tween-80) is on record?
A: 103 % of control

Q: And the T/C (dose: 50.0 mg/kg/injection, schedule: Q04DX002 (ip), vehicle: saline with Tween-80)?
A: 98 % of control

Q: FC(F)(F)c1cc(-n2c(-c3ccccc3)nc(=S)c3c2CCCC3)cc(C(F)(F)F)c1 was tested. Which T/C [1] did it give?
A: 100 % of control

Q: What about the T/C [2] of the same compound?
A: 95 % of control

Q: And the T/C [3]?
A: 94 % of control

Q: Which T/C (dose: 50.0 mg/kg/injection, schedule: Q01DX009 (ip), vehicle: Klucel (hydroxypropylcellulose) (HPC)) does the source give for CC12CCC3(CC(=O)C1CCC2O)OCCO3 (configuration not stated) here?
A: 107 % of control

Q: And the T/C (dose: 100.0 mg/kg/injection, schedule: Q01DX009 (ip), vehicle: Klucel (hydroxypropylcellulose) (HPC))?
A: 103 % of control

Q: What about the T/C (dose: 200.0 mg/kg/injection, schedule: Q01DX009 (ip), vehicle: Klucel (hydroxypropylcellulose) (HPC)) of the same compound?
A: 116 % of control

Q: What does the source list for CC(=O)Oc1ccc[nH]c1=S?
A: T/C [4]: 101 % of control and 103 % of control; T/C [5]: 104 % of control and 106 % of control; T/C (dose: 50.0 mg/kg/injection, schedule: Q01DX009 (ip), vehicle: saline): 99 % of control and 102 % of control; T/C (dose: 100.0 mg/kg/injection, schedule: Q01DX008 (ip), vehicle: saline): 104 % of control and 106 % of control; T/C (dose: 100.0 mg/kg/injection, schedule: Q01DX009 (ip), vehicle: saline): 100 % of control and 104 % of control; T/C (dose: 200.0 mg/kg/injection, schedule: Q01DX008 (ip), vehicle: saline): 105 % of control and 110 % of control; T/C (dose: 200.0 mg/kg/injection, schedule: Q01DX009 (ip), vehicle: saline): 109 % of control and 113 % of control; T/C (dose: 400.0 mg/kg/injection, schedule: Q01DX008 (ip), vehicle: saline): 120 % of control; T/C (dose: 400.0 mg/kg/injection, schedule: Q01DX009 (ip), vehicle: saline): 96 % of control

Q: Clc1cccc(-c2nc(N3CCOCC3)c3c4c(sc3n2)CCC4)c1 was tested. Which T/C (dose: 60.0 mg/kg/injection, schedule: Q01DX005 (ip), vehicle: Klucel (hydroxypropylcellulose) (HPC)) did it give?
A: 101 % of control

Q: What about the T/C (dose: 120.0 mg/kg/injection, schedule: Q01DX005 (ip), vehicle: Klucel (hydroxypropylcellulose) (HPC)) of the same compound?
A: 97 % of control

Q: And the T/C (dose: 240.0 mg/kg/injection, schedule: Q01DX005 (ip), vehicle: Klucel (hydroxypropylcellulose) (HPC))?
A: 97 % of control

Q: For O=c1c(-c2ccccc2)coc2cc(O)ccc12, which T/C [6] is on record?
A: 105 % of control

Q: What about the T/C [7] of the same compound?
A: 89 % of control

Q: And the T/C [8]?
A: 88 % of control

Q: CCOC(=O)[C]1([Bi]([CH3])[CH3])N=NC(C(=O)OC)=C1C(=O)OC (configuration not stated) was tested. Which T/C (dose: 25.0 mg/kg/injection, schedule: Q04DX003 (ip), vehicle: saline) did it give?
A: 93 % of control

Q: And the T/C (dose: 50.0 mg/kg/injection, schedule: Q04DX003 (ip), vehicle: saline)?
A: 97 % of control

Q: And the T/C (dose: 100.0 mg/kg/injection, schedule: Q04DX003 (ip), vehicle: saline with Tween-80)?
A: 99 % of control

Q: O=C1CCCC2CCC(=O)C12 (configuration not stated) was tested. Which T/C (dose: 100.0 mg/kg/injection, schedule: Q04DX003 (ip), vehicle: other) did it give?
A: 114 % of control

Q: And the T/C (dose: 200.0 mg/kg/injection, schedule: Q04DX003 (ip), vehicle: other)?
A: 97 % of control

Q: And the T/C (dose: 400.0 mg/kg/injection, schedule: Q04DX003 (ip), vehicle: other)?
A: 106 % of control

Q: For N#CC1(C#N)OC1(C#N)c1ccccc1 (configuration not stated), which T/C (dose: 3.0 mg/kg/injection, schedule: Q01DX009 (ip), vehicle: saline with Tween-80) is on record?
A: 100 % of control

Q: What about the T/C (dose: 6.0 mg/kg/injection, schedule: Q01DX009 (ip), vehicle: saline with Tween-80) of the same compound?
A: 100 % of control

Q: And the T/C (dose: 12.0 mg/kg/injection, schedule: Q01DX009 (ip), vehicle: saline with Tween-80)?
A: 100 % of control

Q: N#CC(=N)C(C#N)=Nc1c(O)[nH]c2ccccc12 was tested. Which T/C (dose: 6.25 mg/kg/injection, schedule: Q01DX009 (ip), vehicle: DMSO) did it give?
A: 100 % of control

Q: And the T/C (dose: 12.5 mg/kg/injection, schedule: Q01DX009 (ip), vehicle: DMSO)?
A: 94 % of control

Q: And the T/C (dose: 25.0 mg/kg/injection, schedule: Q01DX009 (ip), vehicle: DMSO)?
A: 100 % of control

Q: What about the T/C (dose: 50.0 mg/kg/injection, schedule: Q01DX009 (ip), vehicle: DMSO) of the same compound?
A: 108 % of control

Q: What does the source list for Cc1cc(C)n(-c2ccc(S(=O)(=O)N3CC(=O)N(c4ccccc4)C3=S)cc2)n1?
A: T/C (dose: 50.0 mg/kg/injection, schedule: Q01DX005 (ip), vehicle: saline with Tween-80): 95 % of control; T/C (dose: 100.0 mg/kg/injection, schedule: Q01DX005 (ip), vehicle: saline with Tween-80): 93 % of control

Q: For CC(=O)c1cccc2cccc([N+](=O)[O-])c12, which T/C [2] is on record?
A: 104 % of control

Q: What about the T/C [3] of the same compound?
A: 90 % of control

Q: And the T/C (dose: 400.0 mg/kg/injection, schedule: Q01DX009 (ip), vehicle: saline with Tween-80)?
A: 104 % of control

Q: What does the source list for O=C(CCCCl)NN=C(c1ccccc1)c1ccccc1?
A: T/C (dose: 42.0 mg/kg/injection, schedule: Q01DX009 (ip), vehicle: saline with Tween-80): 100 % of control; T/C (dose: 84.0 mg/kg/injection, schedule: Q01DX009 (ip), vehicle: saline with Tween-80): 97 % of control; T/C (dose: 168.0 mg/kg/injection, schedule: Q01DX009 (ip), vehicle: saline with Tween-80): 95 % of control

Q: What does the source list for COc1cc(OC)cc(C2(C(O)C3OC(C)(C)OC3C)SCCCS2)c1 (configuration not stated)?
A: T/C (dose: 100.0 mg/kg/injection, schedule: Q01DX001 (ip), vehicle: Klucel (hydroxypropylcellulose) (HPC)): 103 % of control; T/C (dose: 200.0 mg/kg/injection, schedule: Q01DX001 (ip), vehicle: Klucel (hydroxypropylcellulose) (HPC)): 99 % of control; T/C (dose: 400.0 mg/kg/injection, schedule: Q01DX001 (ip), vehicle: Klucel (hydroxypropylcellulose) (HPC)): 97 % of control

Q: For C/C=C/C1OC(OC)(OC)C1(OC)OC (configuration not stated), which T/C (dose: 60.0 mg/kg/injection, schedule: Q01DX005 (ip), vehicle: saline) is on record?
A: 100 % of control

Q: And the T/C (dose: 120.0 mg/kg/injection, schedule: Q01DX005 (ip), vehicle: saline)?
A: 100 % of control

Q: What about the T/C (dose: 240.0 mg/kg/injection, schedule: Q01DX005 (ip), vehicle: saline) of the same compound?
A: 100 % of control

Q: For O=C(CCl)OCCN1Cc2nc3sc4c(c3c(=O)n2CC1=O)CCCC4, which T/C [1] is on record?
A: 97 % of control

Q: What about the T/C [2] of the same compound?
A: 94 % of control

Q: And the T/C [3]?
A: 112 % of control

Q: Which results are given for CCOC(=O)COc1ccc2c(C)cc(=O)oc2c1[N+](=O)[O-]?
A: T/C [6]: 102 % of control; T/C [7]: 99 % of control; T/C [8]: 98 % of control

Q: Which results are given for CCN(CC)c1cccc(OC(=O)Nc2cccc(C(F)(F)F)c2)c1?
A: T/C [6]: 106 % of control; T/C [7]: 94 % of control; T/C [8]: 97 % of control

Q: Which results are given for COC(=O)c1ncn(C2CCCCC2)c1N?
A: T/C (dose: 6.25 mg/kg/injection, schedule: Q01DX005 (ip), vehicle: saline with Tween-80): 99 % of control; T/C (dose: 12.5 mg/kg/injection, schedule: Q01DX005 (ip), vehicle: saline with Tween-80): 101 % of control

Q: CC[n+]1ccc(/C=C\c2c(Cl)cccc2Cl)cc1 was tested. Which T/C (dose: 6.25 mg/kg/injection, schedule: Q01DX009 (ip), vehicle: saline) did it give?
A: 96 % of control

Q: What about the T/C [4] of the same compound?
A: 104 % of control

Q: What about the T/C [5] of the same compound?
A: 106 % of control
